Test results published in paper PMC9457941, “Synthesis and Kinase Inhibitory Potencies of Pyrazolo[3,4-g]isoquinolines” (Molecules, 2022).

Tests used:
[1] = molecular target: T1, MmCLK1 (Mus musculus, UniProt P22518); assay: ADP-Glo kinase inhibition assay, CLK1; format: biochemical; conditions: for IC50: 10 μM ATP, duplicate, read-out: CLK1 IC50; for remaining activity at 1 µM: read-out: CLK1 % residual activity at 1 μM; for remaining activity at 10 µM: read-out: CLK1 % residual activity at 10 μM
T1 construct: host or cells: bacteria
T1 sequence (P22518 whole entry): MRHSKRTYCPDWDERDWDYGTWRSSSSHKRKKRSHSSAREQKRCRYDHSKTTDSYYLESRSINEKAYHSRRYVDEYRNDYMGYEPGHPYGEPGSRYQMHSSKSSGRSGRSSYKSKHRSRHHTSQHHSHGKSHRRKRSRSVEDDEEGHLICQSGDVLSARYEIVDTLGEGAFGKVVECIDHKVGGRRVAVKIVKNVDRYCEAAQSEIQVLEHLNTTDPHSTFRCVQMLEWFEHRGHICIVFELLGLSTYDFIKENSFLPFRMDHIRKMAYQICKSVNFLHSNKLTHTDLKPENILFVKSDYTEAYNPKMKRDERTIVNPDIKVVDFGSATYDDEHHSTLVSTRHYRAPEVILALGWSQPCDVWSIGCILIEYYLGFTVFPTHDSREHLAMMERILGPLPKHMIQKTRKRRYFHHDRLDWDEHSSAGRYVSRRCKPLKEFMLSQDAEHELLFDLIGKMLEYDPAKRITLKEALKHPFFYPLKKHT
Description: (§1) Kinase enzymatic activities were assayed in 384 well plates using the ADP-GloTM assay kit (Promega, Madison, WI, USA) according to the manufacturer’s guidance. Briefly, the reactions were carried out in a final volume of 6 μL for 30 min at 30 °C in an appropriate kinase buffer (10 mM MgCl2, 1 mM EGTA, 1 mM DTT, 25 mM Tris-HCl pH 7.5, 50 μg/mL heparin), with either protein or peptide as substrate in the presence of 10 μM ATP (40 mM Tris pH 7.5, 20 mM MgCl2 and 0.1 mg/mL of BSA). Afterward, 6 μL of ADP-GloTM Kinase Reagent was added to stop the kinase reaction. After an incubation time of 50 min at room temperature (RT), 12 μL of Kinase Detection Reagent was added for 1 h at RT. The transmitted signal was measured using the Envision (Perkin Elmer, Waltham, MA, USA) microplate luminometer and expressed in relative light unit (RLU). In order to determine the half maximal inhibitory concentration (IC50), the assays were performed in duplicate in the absence or presence of increasing doses of the tested compounds. GraphPad Prism6 software (GraphPad Software, San Diego, CA, USA) was used to fit dose–response curves and to determine the IC50 values. Kinase activities are expressed in the percentage of maximal activity, i.e., measured in the absence of an inhibitor. Peptide substrates were obtained from Proteogenix (Schiltigheim, France).
(§2) The following protein kinases were analyzed in this study: CDK5/p25 (human, recombinant, expressed in bacteria) was assayed with 0.8 μg/μL of histone H1 as substrate; CDK9/CyclinT (human, recombinant, expressed by baculovirus in Sf9 insect cells) were assayed with 0.27 μg/μL of the following peptide: […], as substrate; CK1ε (human, recombinant, expressed by baculovirus in Sf9 insect cells) was assayed with 0.022 μg/μL of the following peptide: […]pAYSITA (“Sp” stands for phosphorylated serine) as CK1-specific substrate; GSK3β (human, recombinant, expressed by baculovirus in Sf9 insect cells) were assayed with 0.010 μg/μL of GS-1 peptide, a GSK-3-selective substrate ([…]pEDEEE); Haspin-kd (human, kinase domain, amino acids 470–798, recombinant, expressed in bacteria) was assayed with 0.007 μg/μL of histone H3 (1–21) peptide ([…]) as substrate; Pim-1 (human proto-oncogene, recombinant, expressed in bacteria) was assayed with 0.8 μg/μL of histone H1 as substrate; MmCLK1 (from Mus musculus, recombinant, expressed in bacteria) was assayed with 0.027 μg/μL of the following peptide: […] as substrate; RnDYRK1A-kd (Rattus norvegicus, amino acids 1–499 including the kinase domain, recombinant, expressed in bacteria, DNA vector kindly provided by Dr. W. Becker, Aachen, Germany) was assayed with 0.033 μg/μL of the following peptide: […] as substrate.

[2] = molecular target: T2, CDK5/p25 (Homo sapiens, UniProt Q00535); assay: ADP-Glo kinase inhibition assay, CDK5/p25; format: biochemical; conditions: for remaining activity at 1 µM: read-out: CDK5 % residual activity at 1 μM; for remaining activity at 10 µM: read-out: CDK5 % residual activity at 10 μM
T2 construct: host or cells: bacteria
T2 sequence (Q00535 whole entry): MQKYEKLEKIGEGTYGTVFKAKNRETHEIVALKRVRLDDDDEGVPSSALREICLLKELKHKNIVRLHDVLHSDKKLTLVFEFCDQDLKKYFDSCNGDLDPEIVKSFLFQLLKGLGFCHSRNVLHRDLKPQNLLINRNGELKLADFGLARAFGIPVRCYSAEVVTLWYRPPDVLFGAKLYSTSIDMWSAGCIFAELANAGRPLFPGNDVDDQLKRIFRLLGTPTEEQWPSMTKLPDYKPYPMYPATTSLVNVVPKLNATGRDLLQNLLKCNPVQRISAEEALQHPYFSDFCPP
T2 sequence (Q15078 99-307, further chain): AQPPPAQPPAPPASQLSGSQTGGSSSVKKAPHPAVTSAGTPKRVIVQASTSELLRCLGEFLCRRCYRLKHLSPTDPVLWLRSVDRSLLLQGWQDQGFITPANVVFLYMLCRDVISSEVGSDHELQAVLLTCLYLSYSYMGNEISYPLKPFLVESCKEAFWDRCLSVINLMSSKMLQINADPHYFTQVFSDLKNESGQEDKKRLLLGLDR
Description: as §1, §2

[3] = molecular target: T3, CK1ε (Homo sapiens, UniProt P49674); assay: ADP-Glo kinase inhibition assay, CK1ε; format: biochemical; conditions: 10 μM ATP, duplicate; for remaining activity at 1 µM: 1 μM compound, read-out: CK1 % residual activity at 1 μM; for remaining activity at 10 µM: 10 μM compound, read-out: CK1 % residual activity at 10 μM
T3 construct: host or cells: Sf9 insect cells (baculovirus)
T3 sequence (P49674 whole entry): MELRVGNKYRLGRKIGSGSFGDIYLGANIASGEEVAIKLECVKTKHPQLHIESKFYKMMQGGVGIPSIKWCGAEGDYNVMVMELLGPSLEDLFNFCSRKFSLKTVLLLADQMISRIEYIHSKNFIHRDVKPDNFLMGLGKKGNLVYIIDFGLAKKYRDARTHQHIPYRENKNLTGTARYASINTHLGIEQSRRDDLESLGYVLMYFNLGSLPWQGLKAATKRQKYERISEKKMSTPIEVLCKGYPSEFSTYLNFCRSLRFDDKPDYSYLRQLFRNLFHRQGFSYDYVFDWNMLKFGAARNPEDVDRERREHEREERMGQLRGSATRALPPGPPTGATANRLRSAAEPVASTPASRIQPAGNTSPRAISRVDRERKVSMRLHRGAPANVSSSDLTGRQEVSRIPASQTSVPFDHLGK
Description: as §1, §2

[4] = molecular target: T4, GSK3β (Homo sapiens, UniProt P49841); assay: ADP-Glo kinase inhibition assay, GSK3β; format: biochemical; conditions: for remaining activity at 1 µM: read-out: GSK3 % residual activity at 1 μM; for remaining activity at 10 µM: read-out: GSK3 % residual activity at 10 μM
T4 construct: host or cells: Sf9 insect cells (baculovirus)
T4 sequence (P49841 whole entry): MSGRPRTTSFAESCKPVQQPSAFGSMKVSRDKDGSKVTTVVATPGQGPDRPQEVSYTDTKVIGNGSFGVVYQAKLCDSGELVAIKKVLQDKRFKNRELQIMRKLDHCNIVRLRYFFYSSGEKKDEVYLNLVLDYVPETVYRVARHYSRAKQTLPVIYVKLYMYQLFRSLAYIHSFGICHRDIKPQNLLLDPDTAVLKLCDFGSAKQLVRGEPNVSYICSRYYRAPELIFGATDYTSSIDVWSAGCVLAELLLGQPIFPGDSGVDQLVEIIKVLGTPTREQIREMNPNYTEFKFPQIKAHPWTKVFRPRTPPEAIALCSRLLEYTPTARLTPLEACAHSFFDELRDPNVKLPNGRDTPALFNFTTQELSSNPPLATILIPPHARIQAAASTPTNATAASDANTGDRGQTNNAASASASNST
Description: as §1, §2

[5] = molecular target: T5, RnDYRK1A-kd (Rattus norvegicus, UniProt Q63470); assay: ADP-Glo kinase inhibition assay, DYRK1A; format: biochemical; conditions: for remaining activity at 1 µM: read-out: DYRK1A % residual activity at 1 μM; for remaining activity at 10 µM: read-out: DYRK1A % residual activity at 10 μM
T5 construct: RnDYRK1A-kd (Rattus norvegicus, amino acids 1–499 including the kinase domain, recombinant, expressed in bacteria); made in house; host or cells: bacteria
Description: as §1, §2

[6] = molecular target: T6, Pim-1 (Homo sapiens, UniProt P11309); assay: ADP-Glo kinase inhibition assay, Pim-1; format: biochemical; conditions: 10 μM ATP, duplicate; for remaining activity at 1 µM: 1 μM compound, read-out: PIM1 % residual activity at 1 μM; for remaining activity at 10 µM: 10 μM compound, read-out: PIM1 % residual activity at 10 μM
T6 construct: host or cells: bacteria
T6 sequence (P11309 whole entry): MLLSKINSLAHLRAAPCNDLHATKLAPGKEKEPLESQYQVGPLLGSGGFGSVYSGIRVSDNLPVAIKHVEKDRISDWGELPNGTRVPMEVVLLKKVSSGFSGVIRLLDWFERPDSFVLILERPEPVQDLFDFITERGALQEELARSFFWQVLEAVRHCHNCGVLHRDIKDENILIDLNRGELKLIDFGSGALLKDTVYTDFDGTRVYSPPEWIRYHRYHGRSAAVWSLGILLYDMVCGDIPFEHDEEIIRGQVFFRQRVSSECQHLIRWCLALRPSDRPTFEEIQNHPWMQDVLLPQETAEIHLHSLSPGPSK
Description: as §1, §2

[7] = molecular target: T7, CDK9/CyclinT (Homo sapiens, UniProt P50750); assay: ADP-Glo kinase inhibition assay, CDK9/CyclinT; format: biochemical; conditions: for IC50: 10 μM ATP, duplicate; for remaining activity at 1 µM: read-out: CDK9 % residual activity at 1 μM; for remaining activity at 10 µM: read-out: CDK9 % residual activity at 10 μM
T7 construct: host or cells: Sf9 insect cells (baculovirus)
T7 sequence (O60563 whole entry): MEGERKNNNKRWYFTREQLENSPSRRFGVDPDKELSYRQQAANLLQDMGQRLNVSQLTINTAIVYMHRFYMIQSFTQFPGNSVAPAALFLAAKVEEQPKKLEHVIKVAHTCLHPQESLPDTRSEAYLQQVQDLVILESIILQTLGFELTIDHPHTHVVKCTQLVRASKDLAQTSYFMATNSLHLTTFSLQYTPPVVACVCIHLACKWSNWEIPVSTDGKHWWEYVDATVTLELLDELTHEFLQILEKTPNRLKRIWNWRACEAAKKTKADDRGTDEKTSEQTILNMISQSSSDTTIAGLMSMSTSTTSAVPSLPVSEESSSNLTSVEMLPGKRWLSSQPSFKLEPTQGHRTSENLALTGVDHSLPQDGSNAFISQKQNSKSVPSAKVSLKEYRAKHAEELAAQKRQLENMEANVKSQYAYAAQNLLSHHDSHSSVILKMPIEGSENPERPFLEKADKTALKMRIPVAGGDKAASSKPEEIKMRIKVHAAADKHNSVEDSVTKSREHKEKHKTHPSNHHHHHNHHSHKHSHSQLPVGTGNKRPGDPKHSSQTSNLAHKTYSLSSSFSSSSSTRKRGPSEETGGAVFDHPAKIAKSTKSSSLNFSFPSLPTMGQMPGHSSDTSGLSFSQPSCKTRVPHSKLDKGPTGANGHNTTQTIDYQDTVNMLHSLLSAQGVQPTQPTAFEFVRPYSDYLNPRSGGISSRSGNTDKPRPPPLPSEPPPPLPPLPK
T7 sequence (P50750 whole entry): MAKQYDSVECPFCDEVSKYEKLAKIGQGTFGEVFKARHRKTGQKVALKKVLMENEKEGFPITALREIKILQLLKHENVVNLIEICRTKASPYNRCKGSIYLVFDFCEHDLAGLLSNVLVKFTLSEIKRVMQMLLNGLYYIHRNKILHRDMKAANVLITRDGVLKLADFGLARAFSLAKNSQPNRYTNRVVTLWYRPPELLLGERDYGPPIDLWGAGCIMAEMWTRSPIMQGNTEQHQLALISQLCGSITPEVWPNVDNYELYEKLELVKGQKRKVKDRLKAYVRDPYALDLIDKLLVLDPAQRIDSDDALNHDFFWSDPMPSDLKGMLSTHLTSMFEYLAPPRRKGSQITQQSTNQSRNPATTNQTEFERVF
Description: as §1, §2

[8] = molecular target: T8, Haspin-kd (human, kinase domain, amino acids 470–798) (Homo sapiens, UniProt Q8TF76); assay: ADP-Glo kinase inhibition assay, Haspin; format: biochemical; conditions: for IC50: 10 μM ATP, duplicate; for remaining activity at 1 µM: read-out: Haspin % residual activity at 1 μM; for remaining activity at 10 µM: read-out: Haspin % residual activity at 10 μM
T8 construct: Haspin-kd (human, kinase domain, amino acids 470–798, recombinant, expressed in bacteria); host or cells: bacteria
T8 sequence (Q8TF76 470-798): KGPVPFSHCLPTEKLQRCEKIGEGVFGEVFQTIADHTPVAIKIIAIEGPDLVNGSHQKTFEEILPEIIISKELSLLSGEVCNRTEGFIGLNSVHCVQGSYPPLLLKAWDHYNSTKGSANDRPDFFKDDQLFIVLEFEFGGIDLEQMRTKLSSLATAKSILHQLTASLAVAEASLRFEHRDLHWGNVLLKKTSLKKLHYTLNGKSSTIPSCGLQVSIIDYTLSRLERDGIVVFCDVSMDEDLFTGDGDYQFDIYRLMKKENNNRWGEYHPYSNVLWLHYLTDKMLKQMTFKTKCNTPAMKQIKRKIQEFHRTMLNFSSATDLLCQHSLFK
Description: as §1

[9] = tested on: panel of 486 kinases; conditions: cited from earlier work

Row | Structure (SMILES) | melting point | remaining activity at 1 µM [1] | remaining activity at 10 µM [1] | remaining activity at 1 µM [2] | remaining activity at 10 µM [2] | remaining activity at 1 µM [3] | remaining activity at 10 µM [3] | remaining activity at 1 µM [4] | remaining activity at 10 µM [4] | remaining activity at 1 µM [5] | remaining activity at 10 µM [5] | remaining activity at 1 µM [6] | remaining activity at 10 µM [6] | remaining activity at 1 µM [7] | remaining activity at 10 µM [7] | remaining activity at 1 µM [8] | remaining activity at 10 µM [8] | other results
1 | O=[N+]([O-])c1c2ccncc2cc2cn[nH]c12 | > 250 °C |  |  |  |  |  |  |  |  |  |  |  |  |  |  |  |  | 
2 | CS(=O)(=O)O.O=[N+]([O-])c1c2ccncc2cc2cn[nH]c12 | > 250 °C |  |  |  |  |  |  |  |  |  |  |  |  |  |  |  |  | 
3 | Cn1ncc2cc3cnccc3c(N)c21 [Compound 2b, 1-Methyl-1H-pyrazolo[3,4-g]isoquinolin-9-amine] | 174 to 175 °C | 36% | 8% | 72% | 60% | 77% | 42% | 68% | 44% | 18% | 5% | 91% | 71% | 39% | 15% | 10% | 14% | IC50 [1]: 548 nM; IC50 ([5]; 10 μM ATP, duplicate, read-out: DYRK1A IC50): 273 nM; IC50 [7]: 578 nM; IC50 [8]: 112 nM; Selectivity Index (SI) Haspin vs. DYRK1A ([8]; Haspin vs. DYRK1A, which was more inhibited than CLK1): 2.4
4 | CCn1ncc2c(C3CC3)c3cnccc3c([N+](=O)[O-])c21 [Compound 3d, 4-Cyclopropyl-1-ethyl-9-nitro-1H-pyrazolo[3,4-g]isoquinoline] | 97 °C | 24% | 5% | 67% | 24% | 61% | 15% | 17% | 5% | 67% | 29% | 99% | 82% | 33% | 11% | 21% | 12% | IC50 [1]: 229 nM; IC50 ([4]; 10 μM ATP, duplicate, read-out: GSK3 IC50): 226 nM; IC50 [7]: 266 nM; IC50 [8]: 312 nM
5 | CCCCc1c2cnccc2c([N+](=O)[O-])c2c1cnn2CC [Compound 3e, 4-Butyl-1-ethyl-9-nitro-1H-pyrazolo[3,4-g]isoquinoline] |  | 58% | 16% | 82% | 57% | 100% | 60% | 39% | 10% | 72% | 16% | 78% | 35% | 33% | 10% | 78% | 19% | 
6 | CCn1ncc2cc3cncc(Br)c3c([N+](=O)[O-])c21 [Compound 4, 8-Bromo-1-ethyl-9-nitro-1H-pyrazolo[3,4-g]isoquinoline] |  | 42% | 18% | 92% | 32% | 100% | 80% | 88% | 80% | 52% | 25% | 77% | 54% | 59% | 18% | 77% | 23% | inhibition at 1 µM ([8]; read-out: Haspin inhibition at 1 μM, 1 μM compound, % inhibition): 23%
7 | COc1ncc2cc3cnccc3c([N+](=O)[O-])c2n1 [I] |  |  |  |  |  |  |  |  |  |  |  |  |  |  |  |  |  | kinases inhibited when tested on a large panel of 486 kinases [9]: 12%
